Assay results as given in US11091740B2, “Composition for inducing dedifferentiation into cancer stem cells comprising ribosome-activating inhibitor as active ingredient, cancer organoid culture method and anticancer drug screening platform based thereon” (priority 2016, dated 2021).

Assays:
[1] = tested on: Cancer stem cell cultured spheroid; experiment: 5-FU response of cancer stem cell cultured spheroid, PI/AnnexinV flow cytometry; format: cell-based; conditions: 5-FU 375 μM for 48 hours
Method: The drug effect close to human physiological activity can be confirmed by monitoring the anticancer drug response of heterogeneous cancer cells containing a plurality of cancer stem cells induced by the exposure of ribosome-inactivating stress. […] Cancer stem cell cultured spheroid were treated with 5-FU (375 μM) for 48 hours and apoptotic cells were quantified by flow cytometry using propidium iodide (PI) and AnnexinV-FITC (1:200) as markers. The number of apoptotic cells positive for both PI and AnnexinV for 5-FU was higher in the control (−) group, but the drug reactivity was better, but those in the general spheroid culture (DMSO) were decreased.

colon cancer cell lines = experiment: Spheroid culture with ribosome-inactivating stress exposure, CD44/CD133 flow cytometry; format: cell-based; conditions: RIS-1 10 ng/mL or RIS-2 50 ng/mL pretreated for 6 hours, spheroid cultured 6 days, compared with control
Method: Colon cancer cell lines were purchased from ATCC (Manassas, USA), a cell line distribution company. Cells were maintained with RPMI medium supplemented with 10% (v/v) fetal bovine serum (FBS) and 5% mixed antibiotics (50 units/mL penicillin and […] streptomycin) (welgene, Daegu, South Korea) in a 5% CO2-humidified incubator at 37° C. […] First, the cultured spheroid cells were dissociated into single cells by trypsinization, washed with phosphate buffer solution, incubated with FITC-conjugated CD44 (BD pharmingen) and APC-conjugated CD133 (MACS, Miltenyi Biotec) antibodies for 15 min, and then the expression of CD44 and CD133 positive cells was analyzed by flow cytometry (Becton Dickinson FACS Canto Il BD Bioscience, San Jose, Calif., USA).

epithelial cancer cells = experiment: Single versus repeated exposure to ribosome-inactivating stress, CD44/CD133 flow cytometry; format: cell-based; conditions: for cancer stem cells (CD44 and CD133) after a first temporary exposure: exposed once for 24 hours, spheroid cultured in stem cell medium, sub-cultured three times; for CD44 and CD133 positive stem cell groups in chronic exposure: exposure in each subculture, total of 3 exposures
Method: To reconfirm that ribosome-inactivating stress (RIS1, RIS2) is a key factor for inducing the dedifferentiation of epithelial cancer cells, the cells were exposed to ribosome-inactivating stress once for 24 hours, spheroid cultured in a stein cell culture medium for 6 days. In the experimental groups which sub-cultured in three times; and sub-cultured while exposing to the ribosome-inactivating stress on the optimum medium for cancer stem cell in each subculture (total of 3 exposures), cancer stem cells were compared quantitatively by flow cytometry with CD44 and CD133 as the marker thereof.

[2] = tested on: Colorectal cancer cell lines; experiment: Cell line-based cancer organoid, CD44 (+) cells by flow cytometry; conditions: RIS-1 10 ng/mL or RIS-2 50 ng/mL pretreated for 6 hours, spheroid, organoid culture 12 days
Method: Colorectal cancer cell lines were pretreated with ribosome-inactivating stress, RIS-1 of 10 ng/mL or RIS-2 of 50 ng/mL for 6 hours to form spheroid. Cancer organoid is formed by using spheroid induced from cancer stem cells increased by the ribosome-inactivating stress. A cancer organoid culture technique was developed from cancer stem cells increased by ribosome-inactivating stress. 100 μl of a culture medium containing 200-400 spheroid cells of about 100 μm in size among the cultured spheroids was mixed with an equal amount of a ice-cold matrigel (BD #35424, USA) and divided as a dome in a 24-well culture dish preheated in the cell incubator. Organoid formation (changes in crypt-villus domain production, morphology and size changes, etc.) is monitored by filling the organoid culture medium (STEMCELLS) so as not to reach the cell-matrigel dome and incubating for 12 days (FIG. 7A). The final cultured organoid is tested by immunohistochemistry and flow cytometry. After washing with ice-cold PBS, the organoid was separated from the matrigel and fixed with 0.1% tritonX-100, 4% PFA and immunostained. E-cadherin, an epithelial cell factor, mucin-2, a goblet cell marker for differentiated intestinal cells and F-actin for confirming cell structure formation are examined to confirm the formation of an intestinal organoid (FIG. 7A). […]

[3] = tested on: CMT-93 mouse colorectal cancer cell line; experiment: Allograft of RIS-2 pretreated cancer cells, epithelial mesenchyme transition markers by immunohistochemistry; format: in vivo; conditions: cells pretreated with RIS-2 50 ng/mL for 6 hours, subcutaneous in C57BL/6 mice, 5-FU i.p. on day 7, tumors excised 24 h later
Method: Cancer stem cells have been identified as a major cause of cancer progression, metastasis, recurrence, and resistance to anticancer drugs. In order to investigate the in vivo activity of cancer stem cells produced by the exposure to ribosome-inactivating stress, epithelial mesenchyme transition (EMT) phenomenon, which is an in vivo phenotype representing the characteristics of cancer stem cells was examined. The in vivo activity of cancer stem cells was determined by the degree of epithelial mesenchyme transition, which is verified by the decrease of E-cadherin, an epithelial cell marker and the increase of the protein expression of N-cadherin and vimentin, mesenchymal marker. For this purpose, in vivo experiment using allografts of cancer cells was performed. The CMT-93 mouse colorectal cancer cell line was cultured in DMEM (Welgene, Daegu, South Korea) supplemented with 10% (v/v) fetal bovine serum (FBS) and 5% mixed antibiotics (50 units/mL penicillin, […] streptomycin) in a 5% CO2, 37 humidified incubator at 37° C. CMT-93 cells (5×10^6) pretreated with RIS-2 (50 ng/mL) for 6 hours were resuspended with 200 μL of PBS and injected subcutaneously into a 14-week-old male C57BL/6 mice. Seven days later, […] anticancer drug 5-FU was intraperitoneally injected and tumors were excised surgically 24 h later. Solid tumors were obtained by immunohistochemistry using E-cadherin (1:200, BD Science), N-cadherin (1:200, BD Science), vimentin (1:200, Cell signaling) specific antibodies. The excised solid tumors were fixed in 4% paraformaldehyde, embedded in paraffin, and sectioned to prepare slice slide specimens. After dehydration and antibody binding, spatial expression of protein expression in tissues was investigated by 3,3-diaminobenzidine (DAB) substrate reaction and relative expression of DAB versus hematoxylin-positive cells was quantified by a tissue analysis software (Histo Quest, TissueGnotics).

| SMILES | number of apoptotic cells positive for both PI and AnnexinV ([1]; control (−) group) | number of apoptotic cells positive for both PI and AnnexinV ([1]; general spheroid culture (DMSO)) | drug reactivity (apoptotic cells) ([1]; spheroid containing cancer stem cell group induced by ribosome-inactivating stress) | CD44 and CD133 positive cells representing cancer stem cell group (colon cancer cell lines) | cancer stem cells (CD44 and CD133) after a first temporary exposure (epithelial cancer cells) | CD44 and CD133 positive stem cell groups in chronic exposure (epithelial cancer cells) | CD44 (+) cancer stem cell group in cultured cancer organoid [2] | epithelial cell marker E-cadherin in solid tumors [3] | mesenchymal cell marker N-cadherin in solid tumors [3] | mesenchymal cell marker vimentin protein in solid tumors [3] |
| --- | --- | --- | --- | --- | --- | --- | --- | --- | --- | --- |
| O=c1[nH]cc(F)c(=O)[nH]1 [5-FU, fluorouracil] | higher | decreased | further reduced |  |  |  |  |  |  |  |
| COc1ccc(C[C@H]2NC[C@H](O)[C@H]2OC(C)=O)cc1 [RIS-1, anisomycin] |  |  |  | significantly increased | maintained continuously | increased significantly | significantly increased |  |  |  |
| CC1=C[C@H]2O[C@@H]3[C@H](O)C[C@](C)([C@@]2(CO)[C@H](O)C1=O)[C@]31CO1 [RIS-2, deoxynivalenol] |  |  |  | significantly increased | maintained continuously | increased significantly | significantly increased | decreased | significantly increased | significantly increased |
